{"source": "ChEMBL document CHEMBL1201862", "about": "“PubChem BioAssay data set” (2004)", "key": {"[1]": {"system": "Streptococcus sp. 'group A'", "test": "growth inhibition of control SK(-) GAS strain, dose response, counter-screen for streptokinase expression inhibitor project, luminescence, kanamycin, BacTiterGlo, confirmation (AID 1900)", "format": "functional, organism-based"}, "Streptokinase A": {"molecular_target": "T1, Streptokinase A (Streptococcus pyogenes serotype M1, UniProt P10520)", "T1 sequence (P10520 whole entry)": "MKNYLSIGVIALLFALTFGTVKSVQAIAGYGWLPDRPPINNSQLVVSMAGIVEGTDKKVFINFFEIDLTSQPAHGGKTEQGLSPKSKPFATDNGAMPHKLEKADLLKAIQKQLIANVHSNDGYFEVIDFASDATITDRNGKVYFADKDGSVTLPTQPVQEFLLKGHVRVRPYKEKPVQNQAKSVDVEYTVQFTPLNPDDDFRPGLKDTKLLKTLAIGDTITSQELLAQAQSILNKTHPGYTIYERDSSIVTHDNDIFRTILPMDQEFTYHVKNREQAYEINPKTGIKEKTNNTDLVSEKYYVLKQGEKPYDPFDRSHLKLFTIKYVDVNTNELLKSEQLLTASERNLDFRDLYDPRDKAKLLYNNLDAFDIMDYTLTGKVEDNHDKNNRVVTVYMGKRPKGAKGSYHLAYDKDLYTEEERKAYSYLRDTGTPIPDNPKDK", "test": "S. pyogenes streptokinase expression inhibitors, potency, dose response, plasminogen activation absorbance, OD405 (AID 1914);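 note: secreted streptokinase activity via plasminogen activation per viability signal from cell pellet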", "format": "functional, Streptococcus pyogenes M1 GAS"}, "Streptococcus": {"system": "Streptococcus", "test": "Group A Streptococcus viability loss, dose response, counter-screen for streptokinase expression inhibitor project, luminescence, BacTiterGlo (AID 1915);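 note: potency for reduction of bacterial viability or growth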", "format": "functional, organism-based"}, "[2]": {"molecular_target": "T2, Heat shock factor protein 1 (Mus musculus, UniProt P38532)", "T2 sequence (P38532 whole entry)": "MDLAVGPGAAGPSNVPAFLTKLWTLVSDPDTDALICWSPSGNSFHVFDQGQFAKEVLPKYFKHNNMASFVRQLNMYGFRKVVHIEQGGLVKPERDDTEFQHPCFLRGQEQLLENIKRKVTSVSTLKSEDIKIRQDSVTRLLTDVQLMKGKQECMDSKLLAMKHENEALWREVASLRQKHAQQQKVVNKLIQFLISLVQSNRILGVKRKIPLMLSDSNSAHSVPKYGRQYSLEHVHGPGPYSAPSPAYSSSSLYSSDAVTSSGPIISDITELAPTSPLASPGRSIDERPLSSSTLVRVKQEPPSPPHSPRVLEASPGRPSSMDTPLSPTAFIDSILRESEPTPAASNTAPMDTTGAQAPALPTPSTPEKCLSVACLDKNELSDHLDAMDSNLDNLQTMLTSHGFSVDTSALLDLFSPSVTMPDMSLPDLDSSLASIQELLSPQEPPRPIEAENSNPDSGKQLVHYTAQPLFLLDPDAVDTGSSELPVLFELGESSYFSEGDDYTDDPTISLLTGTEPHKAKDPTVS", "test": "inhibition of MG132-induced HSE-luciferase signal, confirmation, cell-based, NIH3T3, luminescence, dose retest (AID 2382);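 note: NIH3T3 fibroblasts with HSF1-driven luciferase reporter stressed by proteasome inhibitor MG132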", "format": "functional"}, "[3]": {"test": "HEp-2 cell cytotoxicity, dose response, cytotoxicity control for RSV inhibitor project, HTS (AID 2410)", "format": "functional", "conditions": "human respiratory syncytial virus"}, "H9c2": {"system": "H9c2", "test": "cells", "format": "functional, cell-based", "conditions": "Rattus norvegicus, H9c2, Myocardium"}, "[4]": {"molecular_target": "T2, Heat shock factor protein 1", "test": "HSF1 potentiators in luciferase reporter cells, confirmation, cell-based, NIH3T3, luminescence, dose retest (AID 435004);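 note: stress induced by proteasome inhibitor MG132 added 30 min after compound; actives raise luminescence as potentiators of the MG132 stress response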", "format": "functional"}, "Protein skinhead-1": {"molecular_target": "T3, Protein skinhead-1 (Caenorhabditis elegans, UniProt P34707)", "T3 sequence (P34707 whole entry)": "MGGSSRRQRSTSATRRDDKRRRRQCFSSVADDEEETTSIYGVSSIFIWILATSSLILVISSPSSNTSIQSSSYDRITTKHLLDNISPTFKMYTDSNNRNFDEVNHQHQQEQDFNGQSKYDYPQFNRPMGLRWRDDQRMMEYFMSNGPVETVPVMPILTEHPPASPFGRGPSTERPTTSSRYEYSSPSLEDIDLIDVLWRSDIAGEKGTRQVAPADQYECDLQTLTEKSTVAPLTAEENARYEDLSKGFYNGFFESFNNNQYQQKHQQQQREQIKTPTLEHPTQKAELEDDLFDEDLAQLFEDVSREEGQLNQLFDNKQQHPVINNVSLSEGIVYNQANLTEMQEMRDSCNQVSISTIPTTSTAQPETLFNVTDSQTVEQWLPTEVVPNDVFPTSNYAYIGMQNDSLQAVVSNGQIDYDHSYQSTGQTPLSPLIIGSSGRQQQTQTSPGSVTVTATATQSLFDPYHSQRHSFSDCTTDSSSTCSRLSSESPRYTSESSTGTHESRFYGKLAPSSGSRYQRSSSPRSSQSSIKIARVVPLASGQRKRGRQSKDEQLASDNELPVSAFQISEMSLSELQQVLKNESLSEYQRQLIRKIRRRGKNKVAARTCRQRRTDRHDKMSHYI", "format": "functional"}, "Paired box protein Pax-8": {"molecular_target": "Paired box protein Pax-8 (Homo sapiens, UniProt Q06710)", "sequence (Q06710 whole entry)": "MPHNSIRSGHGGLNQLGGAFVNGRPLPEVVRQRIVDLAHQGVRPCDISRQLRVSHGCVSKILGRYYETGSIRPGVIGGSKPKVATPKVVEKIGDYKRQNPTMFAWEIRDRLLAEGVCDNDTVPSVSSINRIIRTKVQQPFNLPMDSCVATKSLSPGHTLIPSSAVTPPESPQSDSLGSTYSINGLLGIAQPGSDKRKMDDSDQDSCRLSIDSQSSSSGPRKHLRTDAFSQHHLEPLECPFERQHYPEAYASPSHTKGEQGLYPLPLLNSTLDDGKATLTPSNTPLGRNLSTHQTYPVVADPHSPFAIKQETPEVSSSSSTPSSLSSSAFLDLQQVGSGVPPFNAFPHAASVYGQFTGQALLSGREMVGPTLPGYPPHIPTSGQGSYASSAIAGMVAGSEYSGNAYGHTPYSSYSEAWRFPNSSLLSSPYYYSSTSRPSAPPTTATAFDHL", "test": "inhibitors of PAX8-driven TPO luciferase reporter, dose response, RMG-I cells, cherry-pick (AID 687027);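 note: luciferase reporter driven by Pax8 target thyroperoxidase promoter measured by SteadyGlo luminescence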", "format": "functional, cell-based"}, "[5]": {"test": "Luminescence Cell-Based Dose Retest to Confirm Inhibitors of Cancer Stem Cells. [Related pubchem assays (depositor defined):AID2717, AID2721]", "format": "functional", "conditions": "Homo sapiens"}, "Cytochrome P450 2C19": {"molecular_target": "Cytochrome P450 2C19 (Homo sapiens, UniProt P33261)", "sequence (P33261 whole entry)": "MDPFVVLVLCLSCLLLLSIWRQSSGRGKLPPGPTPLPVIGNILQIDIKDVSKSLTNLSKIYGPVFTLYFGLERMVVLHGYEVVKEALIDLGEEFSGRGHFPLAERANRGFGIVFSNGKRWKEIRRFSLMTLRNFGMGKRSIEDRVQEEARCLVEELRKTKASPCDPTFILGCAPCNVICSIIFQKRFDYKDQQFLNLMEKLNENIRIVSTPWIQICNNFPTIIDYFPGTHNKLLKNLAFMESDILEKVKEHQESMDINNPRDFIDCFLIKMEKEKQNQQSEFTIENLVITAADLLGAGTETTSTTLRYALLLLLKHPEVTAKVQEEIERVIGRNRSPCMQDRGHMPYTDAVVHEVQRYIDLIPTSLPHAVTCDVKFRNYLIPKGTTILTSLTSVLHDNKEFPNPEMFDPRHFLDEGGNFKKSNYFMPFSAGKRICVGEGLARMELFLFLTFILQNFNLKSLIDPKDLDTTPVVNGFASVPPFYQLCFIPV", "test": "Cytochrome panel assay with activity outcomes. Panel member name: p450-cyp2c19 Compounds with AC50 equal or less than 10 uM are considered active", "format": "functional", "conditions": "read-out: AC50"}, "Cytochrome P450 2C9": {"molecular_target": "Cytochrome P450 2C9 (Homo sapiens, UniProt P11712)", "sequence (P11712 whole entry)": "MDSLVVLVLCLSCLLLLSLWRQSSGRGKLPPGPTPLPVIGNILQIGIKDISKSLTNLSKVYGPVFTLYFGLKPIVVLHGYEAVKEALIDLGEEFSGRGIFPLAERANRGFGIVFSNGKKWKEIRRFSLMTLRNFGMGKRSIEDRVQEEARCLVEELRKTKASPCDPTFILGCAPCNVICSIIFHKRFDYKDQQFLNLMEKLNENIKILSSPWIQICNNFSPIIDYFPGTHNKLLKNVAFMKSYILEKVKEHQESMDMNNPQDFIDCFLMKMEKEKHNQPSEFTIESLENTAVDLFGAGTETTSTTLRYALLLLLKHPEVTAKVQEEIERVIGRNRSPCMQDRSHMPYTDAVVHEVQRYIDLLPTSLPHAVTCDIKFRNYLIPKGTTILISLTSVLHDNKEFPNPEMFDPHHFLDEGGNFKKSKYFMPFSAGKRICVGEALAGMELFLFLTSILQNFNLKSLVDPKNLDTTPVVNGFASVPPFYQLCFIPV"}}, "note": "Calls of active or inactive are those of the source.", "data": [{"smiles": "O=C1N=C(Nc2ccc(Cl)cc2)SC1Cc1cc(Cl)ccc1Cl", "note": "(configuration not stated)", "values": [{"measurement": "EC50", "setting": "[1]", "result": "2.64 µM (active)"}, {"measurement": "EC50", "setting": "Streptokinase A", "result": "> 150 µM (not active)"}, {"measurement": "EC50", "setting": "Streptococcus", "result": "7.38 µM (active)"}]}, {"smiles": "COC(=O)c1c(C)[nH]c(C)c1-c1cccc([N+](=O)[O-])c1", "values": [{"measurement": "EC50", "setting": "[2]", "result": "> 195 µM (not active)"}]}, {"smiles": "Cc1cc2c(cc1S(=O)(=O)N1CCc3ccccc31)NC(=O)CO2", "values": [{"measurement": "CC50", "setting": "[3]", "result": "13.8 µM (active)"}]}, {"smiles": "COc1ccccc1N1CCN(C(=O)c2sc3nc(C)nc(N4CCN(c5ccccn5)CC4)c3c2C)CC1", "values": [{"measurement": "CC50", "setting": "[3]", "result": "20 µM (active)"}]}, {"smiles": "CCCN1C(=O)/C(=C/c2c[nH]nc2-c2ccccc2)SC1=S", "values": [{"measurement": "CC50", "setting": "[3]", "result": "20.7 µM (active)"}]}, {"smiles": "COC(=O)c1cc2ccc(OC)cc2c2cc(OC)c(OC)cc12", "values": [{"measurement": "IC50", "setting": "H9c2", "result": "> 79 µM (inactive)"}]}, {"smiles": "Cc1nnc(SC(C(=O)Nc2cc(Cl)cc(Cl)c2)c2ccccc2)[nH]c1=O", "note": "(configuration not stated)", "values": [{"measurement": "EC50", "setting": "Streptokinase A", "result": "> 150 µM (not active)"}]}, {"smiles": "Cc1nc(NC(=O)/C=C/c2ccc(Cl)cc2Cl)sc1C(=O)N(C)C", "values": [{"measurement": "EC50", "setting": "[2]", "result": "> 195 µM (not active)"}]}, {"smiles": "CCOC(=O)CN1CCC(c2cc(-c3ccc(Cl)cc3)[nH]n2)CC1", "values": [{"measurement": "EC50", "setting": "[4]", "result": "> 260 µM (inactive)"}]}, {"smiles": "CCn1c(SCC(=O)Nc2oc(-c3ccccc3)c(-c3ccccc3)c2C#N)nnc1-c1ccco1", "values": [{"measurement": "EC50", "setting": "[1]", "result": "10.7 µM (active)"}, {"measurement": "EC50", "setting": "Streptokinase A", "result": "58.8 µM (active)"}, {"measurement": "EC50", "setting": "Streptococcus", "result": "> 150 µM (not active)"}]}, {"smiles": "O=C(CN1CCN(c2ccc(F)cc2)CC1)Nc1cccc(C(F)(F)F)c1", "values": [{"measurement": "CC50", "setting": "[3]", "result": "29.2 µM (active)"}]}, {"smiles": "O=C(Nc1ccc(Nc2ccccc2)cc1)c1ccc(Cl)c([N+](=O)[O-])c1", "values": [{"measurement": "CC50", "setting": "[3]", "result": "18.7 µM (active)"}]}, {"smiles": "COCCCNC(=O)c1cn(CC(C)C)c(=O)c2c1c1ccccc1n2C", "values": [{"measurement": "EC50", "setting": "[2]", "result": "> 195 µM (not active)"}, {"measurement": "IC50", "setting": "Protein skinhead-1", "result": "> 100 µM (inactive)"}]}, {"smiles": "COc1cccc(/C=N/NC(=O)c2ccc(N3CCCC3=O)cc2)c1", "values": [{"measurement": "AC50", "setting": "Paired box protein Pax-8", "result": "< 0.26 µM (active)"}]}, {"smiles": "CCCCn1nc(NC(=O)c2cccs2)c2cc3cc(OC)ccc3nc21", "values": [{"measurement": "IC50", "setting": "H9c2", "result": "> 79 µM (inactive)"}]}, {"smiles": "CC(=O)Nc1ccc(Nc2nc3c(S(=O)(=O)c4ccc(C)c(C)c4)nnn3c3ccccc23)cc1", "values": [{"measurement": "EC50", "setting": "[4]", "result": "112 µM (active)"}]}, {"smiles": "Oc1ccc(Br)cc1/C=N/NC(=S)NCCc1ccccc1", "values": [{"measurement": "EC50", "setting": "[1]", "result": "1.58 µM (active)"}, {"measurement": "EC50", "setting": "Streptokinase A", "result": "> 150 µM (not active)"}, {"measurement": "AC50", "setting": "[5]", "result": "4.29 µM (active)"}, {"measurement": "EC50", "setting": "Streptococcus", "result": "6.21 µM (active)"}]}, {"smiles": "CCOC(=O)Nc1nc(-c2ccc(F)cc2F)cs1", "values": [{"measurement": "IC50", "setting": "Protein skinhead-1", "result": "64.9 µM (inactive)"}]}, {"smiles": "O=C1CCCN1CCC1CCN(C(=O)Nc2ccccc2)CC1", "values": [{"measurement": "EC50", "setting": "[2]", "result": "> 195 µM (not active)"}]}, {"smiles": "CCOC(=O)Cc1cnc(NC(=O)NC(C(=O)OCC)(c2ccccc2)C(F)(F)F)s1", "note": "(configuration not stated)", "values": [{"measurement": "EC50", "setting": "[4]", "result": "> 260 µM (inactive)"}]}, {"smiles": "Cc1ccc(C2C(C#N)=C(N)SC(N)=C2C#N)c(C)c1", "values": [{"measurement": "EC50", "setting": "[4]", "result": "> 260 µM (inactive)"}]}, {"smiles": "O=C(COC(=O)Cc1nnc(O)c2ccccc12)NNC(=O)c1ccc(Cl)cc1", "values": [{"measurement": "IC50", "setting": "H9c2", "result": "> 79 µM (inactive)"}]}, {"smiles": "COc1ccc(-c2cc(C(=O)N(C)Cc3ccccc3F)c3ccccc3n2)cc1OC", "values": [{"measurement": "IC50", "setting": "H9c2", "result": "30.2 µM (inactive)"}]}, {"smiles": "CC1Cc2ccccc2N1C(=O)c1cc2c(=O)n3ccccc3nc2n1C", "note": "(configuration not stated)", "values": [{"measurement": "AC50", "setting": "Cytochrome P450 2C19", "result": "7.08 µM (inconclusive)"}, {"measurement": "AC50", "setting": "Cytochrome P450 2C9", "result": "14.1 µM (inconclusive)"}, {"measurement": "IC50", "setting": "H9c2", "result": "59.3 µM (inactive)"}]}, {"smiles": "COC(=O)c1cc(NC(=O)c2cc(-c3ccc(OC)cc3)oc2C(F)(F)F)ccc1N1CCOCC1", "values": [{"measurement": "CC50", "setting": "[3]", "result": "13.4 µM (active)"}]}, {"smiles": "COCCCn1c(Cc2csc(Nc3ccc(F)cc3)n2)nnc1SCC(N)=O", "values": [{"measurement": "EC50", "setting": "[4]", "result": "> 260 µM (inactive)"}]}, {"smiles": "O=S(=O)(c1ccccc1)N1CCCC(c2nc(O)c3nnn(Cc4cccc(Cl)c4)c3n2)C1", "note": "(configuration not stated)", "values": [{"measurement": "CC50", "setting": "[3]", "result": "13.1 µM (active)"}]}]}
